The text below walks through data of patent US7595345B2, “Vitamin D receptor modulators” (Eli Lilly and Company, priority 2003, dated 2009).

One may read the pEC50 as the EC50 on a negative log10 scale, so that one unit is a factor of ten. By pIC50 is commonly meant −log10 of the IC50, conventionally taken in molar units. Higher therefore signals a small IC50.

The structures appear in SMILES notation. pEC50, pIC50: −log10 of the molar value.

The target of one data set is T1, VDR (pGal4-VDR-LBD) (Homo sapiens, UniProt P11473).
T1 construct: the receptor expression vector pGal4-VDR-LBD (10 ng); expressed in transfected cells; host or cells: Caco-2 cells
T1 sequence (P11473 127-423 limits assumed): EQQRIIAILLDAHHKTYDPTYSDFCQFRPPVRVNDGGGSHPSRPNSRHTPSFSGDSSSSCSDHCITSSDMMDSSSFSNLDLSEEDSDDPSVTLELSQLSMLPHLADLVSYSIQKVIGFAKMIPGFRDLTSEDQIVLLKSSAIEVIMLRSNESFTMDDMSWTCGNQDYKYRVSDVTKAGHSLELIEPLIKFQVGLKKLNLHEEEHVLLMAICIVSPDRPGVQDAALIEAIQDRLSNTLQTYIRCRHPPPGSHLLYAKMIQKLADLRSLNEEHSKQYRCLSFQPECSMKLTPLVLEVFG
Nature of the data set: VDR CTF (Caco-2 cell co-transfection assay). Format: cell-based. The following applies: Caco-2 cells, Gal4-responsive reporter pFRLuc; surrogate for calcemic activity. How it is done: 2. The Caco-2 Cell Co-Transfection Assay:
The Caco-2 cell assay is an indicator for the undesirable condition of hypercalcemia. This co-transfection assay is a surrogate assay for in vivo calcemic activity of VDR ligands. […] Preferred assay results are greater than 1000 nM.
(2) Materials and Method for the Caco-2 Cell Assay:
Caco-2 cells, grown in phenol red free, DMEM (Invitrogen, Carlsbad, Calif.) containing 10% charcoal-stripped FCS (Hyclone, Logan, Utah), were transfected with Fugene 6 reagent (Roche Diagnostics, Indianapolis, Ind.). Cells (5000/well) were plated 18 h before transfection in a 96 well plate. The Cells were transfected with Gal4-responsive reporter pFRLuc (150 ng, Stratagene, La Jolla Calif.) and the receptor expression vector pGal4-VDR-LBD (10 ng), along with Fugene 6 reagent (0.2 μl/well). The DNA-Fugene complex was formed by incubating the mixture for 30 min at room temperature. The cells were transfected in triplicate for 5 h, and treated with various concentrations of VDR ligands (form 0.01 nM to 10,000 nM concentration range) 18 h post-transfection. The luciferase activity was quantified using Steady-Glo reagent kit (Promega, Madison, Wis.) as per manufacturer's specifications.

The subject of another data set is rat osteocalcin promoter. Description: OCN (osteocalcin) promoter assay. The following applies: RG-15 (ROS 17/2.8) cells, 48 hr treatment, luciferase. Type of data set: cell-based. As for the experimental part: 3. The OCN (Osteocalcin) Promoter Assay
The OCN Promoter Assay is an indicator and marker for osteoporosis. Desired assay results are EC50 less than or equal to […]. Preferred assay results are less than […].
(3) Materials and Method for the OCN Promoter Assay:
The activation of osteocalcin by VDR ligands was evaluated in a rat osteoblast-like cell line RG-15 (ROS 17/2.8) stably expressing rat osteocalcin promoter fused with luciferase reporter gene. The stable cell lines were established as reported before (Activation of Osteocalcin Transcription involves interaction of protein kinase A- and Protein kinase C-dependent pathways. Boguslawski, G., Hale, L. V., Yu, X.-P., Miles, R. R., Onyia, J. E., Santerre R. F., Chandrasekhar, S. J. Biol. Chem. 275, 999-1006, 2000). Confluent RG-15 cells maintained in DMEM/F-12 medium (3:1) containing 5% FBS, 300 µg/ml G418 and at 37° C. under 5% CO2/95% air atmosphere were trypsinized (0.25% trypsin) and plated into white opaque 96-well cell culture plates (25000 cells/well). After 24 hr, cells (in DMEM/F-12 medium+2% FBS) were treated with various concentrations of compounds, dissolved in DMSO. The final DMSO concentration remained at 0.01% (v/v). After 48 hr treatment, the medium was removed, cells were lysed with 50 µl of lysis buffer (From Luciferase reporter assay system, Roche Diagnostics, Indianapolis, Ind.) and assayed for luciferase activity using the Luciferase Reporter Gene Assay kit from Boehringer Mannheim as per manufacturer's specifications.

Data set [1] is described as follows: Mouse hypercalcemia assay. Format: in vivo. The following applies: female DBF mice, oral gavage for 6 days, serum ionized calcium 6 hours after last dosing. The text has this:
4. The Mouse Hypercalcemia Assay
(4) Materials and Method for the Mouse Hypercalcemia Assay: […]

In data set [2] the test system is IL-10 production in PBMCs. Nature of the data set: Human IL-10 induction assay. Format: cell-based. The following applies: PBMC; TPA/PHA treated human PBMCs, IL-10 in supernatant by immunoassay. The source says:
6. The IL-10 Induction Assay
This is an in vitro efficacy assay for psoriasis, abscess and adhesion. Psoriasis involves both keratinocytes and immune cells. IL-10 is a unique cytokine because it is anti-inflammatory and immunosuppressive. This assay tells us whether a VDRM is able to function as an agonist in PBMCs (primary blood mononuclear cells) or not. A lower EC50 value is desirable in this assay since a compound with a lower EC50 value will be a better agonist in PBMCs. […] 7. Other Compound Assay Standards An alternative measure of the efficacy of compounds of the invention for treatment of osteoporosis is a numerical ratio calculated as follows: • Dose Threshold needed to induce hypercalcemia • divided by • Dose Threshold needed for bone efficacy An alternative measure of the efficacy of compounds of the invention for treatment of psoriasis is a numerical ratio calculated as follows: • Dose Threshold needed to induce hypercalcemia • divided by • Dose Threshold needed to induce keratinocyte proliferation For the above ratios, Dose Thresholds are determined from dose response curve data. 8. The CaT1 (Calcium Transport Protein 1) Assay The CaT1 Assay is an indicator for the undesirable condition of hypercalcemia. The higher the EC50 values for a compound the less calcemic it will be in vivo. […] Preferred assay results are greater than 1000 nM. Details of the Assay Methods: (1) Materials and Method for RXR-VDR Heterodimerization Assay: Transfection Method:
(6) Materials and Method for Human IL-10 Induction Assay:
Isolation of peripheral blood mononuclear cells (PBMCs): • A. Collect 50 ml of human blood and dilute with media, RPMI-1640. • B. Prepare sterile tubes with ficol. • C. Add diluted blood to tubes. • D. Centrifuge. • E. Discard the top layer and collect the cells from middle layer. • F. Divide all cells into four tubes and add media. • G. Centrifuge. • H. Aspirate off media and resuspend. • I. Collect all cells • J. Centrifuge. at 1200 rpm for 10 minutes. • K. Resuspend in RPMI-1640 with 2% FBS and count cells
Stimulation of PBMC: • L. Prepare TPA in DMSO. • M. Dissolve PHA in water. • N. Plate TPA/PHA treated PBMCs in well plates. • O. Incubate.
Treatment: • P. Prepare all compound dilutions in plain RPMI-1640 media. • Q. Add diluted compound. • R. Incubate.
Sample Collection and Assay: • S. Remove all the cells by centrifugation and assay the supernatant for IL-10 by immunoassay. • 1) T. Perform IL-10 assay using anti-human IL-10 antibody coated beads, as described by the manufacturer (Linco Research Inc., St. Charles, Mo.).

As to `CCC(CC)(c1ccc(OCC(O)(C(C)C)C(C)C)c(C)c1)c1ccc(C(=O)NCC(=O)O)c(C)c1` [Ex. 4, (4-{1-Ethyl-1-[4-(2-hydroxy-2-isopropyl-3-methyl-butoxy)-3-methyl-phenyl]-propyl}-2-methyl-benzoylamino)-acetic acid], the negative-log EC50 (pEC50) at VDR (pGal4-VDR-LBD) is 6.01; with rat osteocalcin promoter, 7.56; in the data set with rat osteocalcin promoter (Rattus norvegicus, 48 h) it was 7.68. The “Mouse Hypercal” value in data set [1] was 73000 µg/kg/day. In data set [2], this compound gave a pIC50 of 6.32.
For the compound `CCC(O)(CC)COc1ccc(C(CC)(CC)c2ccc(C(=O)NCC(=O)O)c(C)c2)cc1C` [Ex. 3, (4-{1-ethyl-1-[4-(2-ethyl-2-hydroxy-butoxy)-3-methyl-phenyl]-propyl}-2-methyl-benzoylamino)-acetic acid], the pEC50 was 6.09 on VDR (pGal4-VDR-LBD); 7.71 in the data set with rat osteocalcin promoter; 7.77 with rat osteocalcin promoter (Rattus norvegicus, 48 h). The “Mouse Hypercal” value in data set [1] is 1000 µg/kg/day. In addition, in data set [2], the pIC50 is 6.14.
